Results on 15 compounds are retold here after patent US12595253B2, “Benzamides of pyrazolylamino-pyrimidinyl derivatives, and compositions and methods thereof” (LYNK PHARMACEUTICALS CO. LTD., priority 2019, dated 2026).

As a reminder, the IC50 is the point on the concentration scale where inhibition reaches its midpoint.

Data set [1] addresses T1, JAK2V617F (Homo sapiens, UniProt O60674, V617F).
T1 construct: purchased Carna Biosciences
Nature of the data set: JAK2V617F microfluidic kinase assay (Caliper EZ Reader II, FAM labeled peptide substrate). As to conditions: JAK2V617F 2.5 nM, 1 mM ATP. The class given is biochemical. The procedure, abridged:
(§1)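 3-fold serial dilutions, top 5 μM, 1% DMSO final; 10 min preincubation with enzyme, RT. Buffer: 50 mM HEPES, 0.01% Brij35, 10 mM MgCl2, 2 mM DTT. Enzyme batch tuned to 10% peptide conversion. EDTA stop, mobility-shift readout, IC50 fit.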

The target in data set [2] is T2, JAK2 (Homo sapiens, UniProt O60674).
T2 construct: purchased Carna Biosciences
T2 sequence (O60674 whole entry): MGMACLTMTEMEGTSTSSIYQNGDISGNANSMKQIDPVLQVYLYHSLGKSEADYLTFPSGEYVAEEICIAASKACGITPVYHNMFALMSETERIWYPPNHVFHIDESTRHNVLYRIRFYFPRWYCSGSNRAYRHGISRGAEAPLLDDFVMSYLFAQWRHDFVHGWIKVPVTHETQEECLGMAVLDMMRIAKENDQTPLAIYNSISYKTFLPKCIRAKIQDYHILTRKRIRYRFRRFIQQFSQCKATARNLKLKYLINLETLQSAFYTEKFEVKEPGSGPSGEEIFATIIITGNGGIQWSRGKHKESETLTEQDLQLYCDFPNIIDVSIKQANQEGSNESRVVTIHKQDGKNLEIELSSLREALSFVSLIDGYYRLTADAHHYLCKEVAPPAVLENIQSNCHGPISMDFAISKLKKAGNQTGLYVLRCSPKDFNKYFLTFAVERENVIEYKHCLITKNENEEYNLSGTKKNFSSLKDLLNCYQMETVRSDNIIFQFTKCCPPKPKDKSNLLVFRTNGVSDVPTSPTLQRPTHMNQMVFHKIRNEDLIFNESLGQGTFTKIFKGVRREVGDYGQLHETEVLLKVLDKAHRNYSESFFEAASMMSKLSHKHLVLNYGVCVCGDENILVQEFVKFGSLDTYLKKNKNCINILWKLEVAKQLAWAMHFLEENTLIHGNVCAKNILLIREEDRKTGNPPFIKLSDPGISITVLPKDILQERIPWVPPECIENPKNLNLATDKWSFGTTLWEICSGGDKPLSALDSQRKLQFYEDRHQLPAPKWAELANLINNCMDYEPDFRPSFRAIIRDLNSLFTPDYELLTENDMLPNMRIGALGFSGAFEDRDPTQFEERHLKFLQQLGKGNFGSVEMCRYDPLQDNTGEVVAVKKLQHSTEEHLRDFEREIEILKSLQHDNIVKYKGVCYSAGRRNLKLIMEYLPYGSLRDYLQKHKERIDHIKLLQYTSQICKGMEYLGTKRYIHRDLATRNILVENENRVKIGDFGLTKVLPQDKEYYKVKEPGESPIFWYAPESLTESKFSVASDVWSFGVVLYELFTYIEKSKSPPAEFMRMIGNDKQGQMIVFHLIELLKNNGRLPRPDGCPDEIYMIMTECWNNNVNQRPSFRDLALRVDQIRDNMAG
As to the kind of experiment: JAK2 microfluidic kinase assay (Caliper EZ Reader II, FAM labeled peptide substrate). The data set is classed as biochemical. The procedure, abridged: as §1

Data set [3] has as its target T3, TYK2 (Homo sapiens, UniProt P29597).
T3 construct: purchased Carna Biosciences
As to the kind of experiment: TYK2 microfluidic kinase assay (Caliper EZ Reader II, FAM labeled peptide substrate). The class given is biochemical. The following applies: IC50 TYK2 ([…]) (1 mM ATP), TYK2 […], 1 mM ATP. An outline of the steps:
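3-fold series, top 5 μM, 1% DMSO; 10 min preincubation with enzyme, RT. Buffer 50 mM HEPES/10 mM MgCl2/2 mM DTT/0.01% Brij35. Run times JAK1 120 min, JAK2 20, JAK2V617F 30, TYK2 10. Stopped with 50 mM EDTA; IC50 from % inhibition vs no-enzyme and DMSO controls.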

Data set [4] concerns the target T4, JAK1 (Homo sapiens, UniProt P23458).
T4 construct: purchased Carna Biosciences
Nature of the data set: JAK1 microfluidic kinase assay (Caliper EZ Reader II, FAM labeled peptide substrate). The data set is classed as biochemical. An outline of the steps:
as §1

Data set [5] in a line: Liver microsomes study, Phase I stability (HLM). The data set is classed as in vitro ADME, human. The following applies: pH 7.4; human liver microsomes 0.5 mg/mL, 1 μM test article; read-out: HLM Clint. An outline of the steps: (§2)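 Phase I turnover was followed by LC/MS/MS of parent compound remaining at 0, 10, 30 and 90 min in NADPH-fortified rat or human microsomes, with cold acetonitrile quench. Half-life and intrinsic clearance were derived from the log-linear depletion slope and the inverse protein concentration.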
For orientation: Microsomes from liver hold many membrane-bound enzymes, among them those of drug oxidation.

Data set [6] deals with T5, CYP2C19 (Homo sapiens, UniProt P33261).
T5 construct: 0.2 mg/mL human liver microsomes was pre-incubated in 180 μL reaction mixture; from tissue; host or cells: pooled human liver microsomes
T5 sequence (P33261 whole entry): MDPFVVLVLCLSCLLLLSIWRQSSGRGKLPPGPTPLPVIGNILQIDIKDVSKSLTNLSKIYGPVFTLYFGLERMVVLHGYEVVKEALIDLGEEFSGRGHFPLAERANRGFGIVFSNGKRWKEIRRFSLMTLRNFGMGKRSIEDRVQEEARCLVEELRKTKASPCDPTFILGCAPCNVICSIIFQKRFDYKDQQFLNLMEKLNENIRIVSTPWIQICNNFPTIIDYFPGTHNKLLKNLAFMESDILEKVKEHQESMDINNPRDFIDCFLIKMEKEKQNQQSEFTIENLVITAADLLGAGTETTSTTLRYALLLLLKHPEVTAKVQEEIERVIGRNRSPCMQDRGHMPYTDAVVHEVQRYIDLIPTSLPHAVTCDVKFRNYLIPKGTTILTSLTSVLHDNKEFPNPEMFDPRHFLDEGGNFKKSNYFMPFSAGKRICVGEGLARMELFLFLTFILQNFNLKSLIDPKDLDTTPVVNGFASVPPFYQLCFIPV
As to the kind of experiment: CYPs inhibition in pooled human liver microsomes, probe substrate S-mephenytoin. The data set is classed as in vitro ADME. The protocol:
The inhibitory potential of test articles in pooled human liver microsomes was evaluated by the method using a cocktail of CYP substrates. […] For the negative control well, the test articles was replaced with 20 μL reaction buffer. After 10 min of pre-incubation at 37° C., 20 μL 10 mM NADPH cofactor was added to the pre-reaction mixtures. After another 10 min incubation, the reaction was stopped by adding 400 μL of ice cold acetonitrile solution containing tolbutamide and labetalol served as internal standards. The incubation mixtures were centrifuged at 4000×g for 20 min, and then the supernatants were analyzed by LC-MS/MS after dilution. SigmaPlot was applied to plot % control activity versus the test compound concentrations, and for non-linear regression analysis of the data. IC50 values of test articles were determined using 3-parameter logistic equation.

The nature of data set [7]: Liver microsomes study, Phase I stability (RLM). The data set is classed as in vitro ADME, rat. The following applies: pH 7.4; rat liver microsomes 0.5 mg/mL, 1 μM test article; read-out: RLM Clint. An outline of the steps:
as §2

[8] abbreviates: IC50 JAK2 ([…]) (1 mM ATP), 1 mM ATP.
The mark [9] stands for this setting: IC50 JAK2 ([…]) (Km ATP), Km ATP.
Setting [10] is: IC50 JAK1 (5 nM) (1 m MATP), JAK1 5 nM, 1 mM ATP.
Where [11] appears, read: IC50 JAK1 (10 nM) (Km ATP), JAK1 10 nM, Km ATP.

SMILES strings stand for the structures. Read-outs that look alike come from different tables or passages of the source. Where only a bound is given, the exact number is not on record here.

T3 sequence (P29597 whole entry): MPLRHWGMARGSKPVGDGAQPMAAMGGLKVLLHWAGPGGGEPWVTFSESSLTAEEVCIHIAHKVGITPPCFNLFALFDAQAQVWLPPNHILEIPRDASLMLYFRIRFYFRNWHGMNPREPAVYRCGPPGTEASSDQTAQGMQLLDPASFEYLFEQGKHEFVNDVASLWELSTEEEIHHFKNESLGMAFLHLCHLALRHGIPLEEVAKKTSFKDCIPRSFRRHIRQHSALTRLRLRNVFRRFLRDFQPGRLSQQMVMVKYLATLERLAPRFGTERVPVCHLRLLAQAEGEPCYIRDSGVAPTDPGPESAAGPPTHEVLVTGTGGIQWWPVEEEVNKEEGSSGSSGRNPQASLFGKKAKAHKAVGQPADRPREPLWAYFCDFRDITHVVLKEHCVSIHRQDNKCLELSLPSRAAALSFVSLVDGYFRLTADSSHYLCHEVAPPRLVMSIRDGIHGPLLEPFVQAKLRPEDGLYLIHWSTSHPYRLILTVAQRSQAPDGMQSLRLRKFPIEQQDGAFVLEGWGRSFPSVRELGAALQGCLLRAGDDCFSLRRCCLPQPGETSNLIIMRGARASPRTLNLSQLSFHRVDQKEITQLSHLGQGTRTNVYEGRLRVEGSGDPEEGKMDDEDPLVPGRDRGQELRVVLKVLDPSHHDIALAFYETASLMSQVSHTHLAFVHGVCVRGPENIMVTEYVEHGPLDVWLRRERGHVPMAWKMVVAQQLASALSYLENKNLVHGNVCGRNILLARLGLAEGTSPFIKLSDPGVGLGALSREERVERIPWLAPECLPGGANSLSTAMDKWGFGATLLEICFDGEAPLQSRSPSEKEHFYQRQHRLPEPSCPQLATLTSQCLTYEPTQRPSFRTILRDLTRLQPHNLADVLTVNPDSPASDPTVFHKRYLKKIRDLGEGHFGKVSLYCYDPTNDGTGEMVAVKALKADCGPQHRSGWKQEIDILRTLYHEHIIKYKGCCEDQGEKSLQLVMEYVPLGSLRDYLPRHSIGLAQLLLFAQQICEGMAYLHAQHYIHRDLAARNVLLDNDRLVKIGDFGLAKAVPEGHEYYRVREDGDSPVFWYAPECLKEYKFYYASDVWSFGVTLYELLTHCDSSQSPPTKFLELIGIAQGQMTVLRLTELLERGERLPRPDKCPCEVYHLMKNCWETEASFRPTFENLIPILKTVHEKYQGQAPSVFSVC
T1 sequence (O60674 whole entry V617F): as the sequence (O60674 whole entry) above, with V617F counted along it
T4 sequence (P23458 whole entry): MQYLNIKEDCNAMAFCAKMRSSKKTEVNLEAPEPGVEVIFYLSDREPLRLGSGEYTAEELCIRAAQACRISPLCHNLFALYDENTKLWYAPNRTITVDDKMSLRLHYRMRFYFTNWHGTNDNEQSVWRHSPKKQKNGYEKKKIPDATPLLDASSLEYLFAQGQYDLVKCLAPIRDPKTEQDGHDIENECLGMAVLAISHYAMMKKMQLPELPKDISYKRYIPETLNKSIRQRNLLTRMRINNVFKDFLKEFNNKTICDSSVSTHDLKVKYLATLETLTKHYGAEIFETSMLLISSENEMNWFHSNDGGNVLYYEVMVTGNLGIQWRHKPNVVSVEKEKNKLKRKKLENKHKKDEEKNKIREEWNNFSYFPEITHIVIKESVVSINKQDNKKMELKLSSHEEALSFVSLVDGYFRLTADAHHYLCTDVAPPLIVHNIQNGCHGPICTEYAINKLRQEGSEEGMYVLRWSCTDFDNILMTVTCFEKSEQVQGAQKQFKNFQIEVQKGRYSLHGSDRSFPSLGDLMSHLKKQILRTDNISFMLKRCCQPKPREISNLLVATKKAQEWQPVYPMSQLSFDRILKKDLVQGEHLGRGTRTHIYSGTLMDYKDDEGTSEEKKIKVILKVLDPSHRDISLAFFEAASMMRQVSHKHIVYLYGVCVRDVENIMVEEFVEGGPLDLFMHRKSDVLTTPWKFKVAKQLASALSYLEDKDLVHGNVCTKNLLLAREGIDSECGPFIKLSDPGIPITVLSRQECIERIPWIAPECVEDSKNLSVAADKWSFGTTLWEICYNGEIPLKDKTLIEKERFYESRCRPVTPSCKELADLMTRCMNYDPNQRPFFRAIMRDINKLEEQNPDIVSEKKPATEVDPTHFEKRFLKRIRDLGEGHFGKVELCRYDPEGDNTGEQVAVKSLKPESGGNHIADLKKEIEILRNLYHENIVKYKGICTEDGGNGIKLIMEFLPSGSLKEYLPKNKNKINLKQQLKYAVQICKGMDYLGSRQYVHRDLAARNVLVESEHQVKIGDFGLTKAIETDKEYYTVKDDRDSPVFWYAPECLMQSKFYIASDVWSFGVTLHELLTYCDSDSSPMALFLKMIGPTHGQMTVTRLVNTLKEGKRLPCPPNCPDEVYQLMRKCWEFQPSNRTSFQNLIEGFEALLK

For the compound `CCNC(=O)c1ccc(-c2nc(Nc3cnn(C)c3)ncc2C)cc1` [Example 222, N-ethyl-4-(5-methyl-2-((1-methyl-1H-pyrazol-4-yl)amino)pyrimidin-4-yl)benzamide], the IC50 in data set [1] is > 5000 nM; in data set [2] (setting [8]) it was 4520 nM; in data set [2] (setting [9]), 149 nM; in data set [3] it was > 5000 nM; in data set [4] (setting [10]), > 5000 nM; in data set [4] (setting [11]), 1890 nM.
As for `Cc1cnc(Nc2cnn(C3CC(C)(C)OC(C)(C)C3)c2)nc1-c1ccc(C(=O)NCC#N)cc1` [Example 113, N-(cyanomethyl)-4-(5-methyl-2-((1-(2,2,6,6-tetramethyltetrahydro-2H-pyran-4-yl)-1H-pyrazol-4-yl)amino)pyrimidin-4-yl)benzamide], the results for the microsomal CLint at 1 μM in data set [5] and in data set [7] were 203 µL/min/mg and 73.9 µL/min/mg, respectively. Further, the IC50 in data set [2] (setting [8]) was < 0.25 nM; in data set [3], 1.66 nM; in data set [4] (read-out: IC50 JAK1 (5 nM) (1 m MATP), JAK1 5 nM, 1 mM ATP), 10.4 nM; in data set [6], 6.36 µM.
Turning to `Cc1cnc(Nc2cnn(C3CCN(C(=O)CO)CC3)c2)nc1-c1ccc(C(=O)N[C@@H](C)C#N)cc1` [Example 119, (S)—N-(1-cyanoethyl)-4-(2-((1-(1-(2-hydroxyacetyl)piperidin-4-yl)-1H-pyrazol-4-yl)amino)-5-methylpyrimidin-4-yl)benzamide], the IC50 in data set [1] is 0.96 nM; in data set [2] (setting [8]), < 0.25 nM; in data set [3], 5.15 nM; in data set [4] (setting [10]), 8.45 nM; in data set [6], > 50 µM.
On to `CC[C@@H](C#N)NC(=O)c1ccc(-c2nc(Nc3cnn(C4CCNCC4)c3)ncc2Cl)cc1` [Example 183, (S)-4-(5-chloro-2-((1-(piperidin-4-yl)-1H-pyrazol-4-yl)amino)pyrimidin-4-yl)-N-(1-cyanopropyl)benzamide], for which the microsomal CLint at 1 μM came out at 12 µL/min/mg in data set [5] and 18.9 µL/min/mg in data set [7]. Further, the IC50 in data set [2] (setting [8]) is 0.42 nM; in data set [3], 2.29 nM; in data set [4] (setting [10]), 1.95 nM; in data set [6], > 50 µM.
Take `C[C@@H](C#N)NC(=O)c1ccc(-c2nc(Nc3cnn(C4CCNCC4)c3)ncc2Cl)cc1` [Example 165, (S)-4-(5-chloro-2-((1-(piperidin-4-yl)-1H-pyrazol-4-yl)amino)pyrimidin-4-yl)-N-(1-cyanoethyl)benzamide]: the IC50 in data set [2] (setting [8]) is 1.16 nM; in data set [3], 65 nM; in data set [4] (setting [10]), 5.94 nM; in data set [6] it was > 50 µM. Also, the microsomal CLint at 1 μM in data set [7] turned out to be 26 µL/min/mg.
Turning to `C[C@@H](C#N)NC(=O)c1ccc(-c2nc(Nc3cnn(C)c3)ncc2Cl)cc1` [Example 125, (S)-4-(5-chloro-2-((1-methyl-1H-pyrazol-4-yl)amino)pyrimidin-4-yl)-N-(1-cyanoethyl)benzamide], the microsomal CLint at 1 μM in data set [5] is 21.9 µL/min/mg; in data set [7], 28.4 µL/min/mg. For the same compound, the IC50 in data set [2] (setting [8]) came to 41.2 nM; in data set [2] (setting [9]) it was 1.48 nM; in data set [3], 146 nM; in data set [4] (setting [10]), 18.9 nM.
Take `CNC(=O)c1ccc(-c2nc(Nc3cnn(C)c3)ncc2C)cc1` [Example 10, N-Methyl-4-(5-methyl-2-((1-methyl-1H-pyrazol-4-yl)amino)pyrimidin-4-yl)benzamide]: the IC50 in data set [1] is > 5000 nM; in data set [2] (setting [8]), > 5000 nM; in data set [2] (setting [9]) it was 30 nM; in data set [3] it was > 5000 nM; in data set [4] (setting [10]), > 5000 nM.
Turning to `C[C@@H](C#N)NC(=O)c1ccc(-c2nc(Nc3cnn(C4CCN(C)CC4)c3)ncc2Cl)cc1` [Example 43, (S)-4-(5-Chloro-2-((1-(1-methylpiperidin-4-yl)-1H-pyrazol-4-yl)amino)pyrimidin-4-yl)-N-(1-cyanoethyl)benzamide], the IC50 in data set [1] was 45.2 nM; in data set [2] (setting [8]) it was 0.57 nM; in data set [3], 29 nM; in data set [4] (setting [10]), 11.2 nM; in data set [6], > 50 µM. Besides, the microsomal CLint at 1 μM in data set [5] turned out to be 15 µL/min/mg; in data set [7] it was 101 µL/min/mg.
Consider `Cc1cnc(Nc2cnn(C)c2)nc1-c1ccc(C(=O)NC(C)C)cc1` [Example 223, N-isopropyl-4-(5-methyl-2-((1-methyl-1H-pyrazol-4-yl)amino)pyrimidin-4-yl)benzamide], for which the IC50 in data set [1] is 4540 nM; in data set [2] (setting [8]) it was 1450 nM; in data set [3], > 5000 nM; in data set [4] (setting [10]), 3940 nM.
Take `Cn1cc(Nc2ncc(Cl)c(-c3ccc(C(=O)NCC#N)cc3)n2)cn1` [Example 34, 4-(5-Chloro-2-((1-methyl-1H-pyrazol-4-yl)amino)pyrimidin-4-yl)-N-(cyanomethyl)benzamide]: the microsomal CLint at 1 μM in data set [5] was 12.3 µL/min/mg; in data set [7] it was 31.6 µL/min/mg. Also, the IC50 in data set [2] (setting [8]) came to 24.4 nM; in data set [2] (setting [9]) it was 0.7 nM; in data set [3], 98.4 nM; in data set [4] (setting [10]), 11.8 nM.
Turning to `CC[C@@H](C#N)NC(=O)c1ccc(-c2nc(Nc3cnn(C4CC4)c3)ncc2Cl)cc1` [Example 61, (S)-4-(5-chloro-2-((1-cyclopropyl-1H-pyrazol-4-yl)amino)pyrimidin-4-yl)-N-(1-cyanopropyl)benzamide], the IC50 in data set [1] is 34.8 nM; in data set [2] (setting [8]) it was 4.73 nM; in data set [3] it was 52.8 nM; in data set [4] (setting [10]), 5.81 nM.
In the case of `N#CCNC(=O)c1ccc(-c2nc(Nc3cnn(C4CC4)c3)ncc2Cl)cc1` [Example 95, 4-(5-Chloro-2-((1-cyclopropyl-1H-pyrazol-4-yl)amino)pyrimidin-4-yl)-N-(cyanomethyl)benzamide], the IC50 in data set [1] was 25.3 nM; in data set [2] (setting [8]), 4.48 nM; in data set [3], 58.9 nM; in data set [4] (setting [10]), 7.29 nM. The microsomal CLint at 1 μM in data set [5] came out at 8.84 µL/min/mg; in data set [7] it was 31.1 µL/min/mg.
In the case of `C[C@@H](C#N)NC(=O)c1ccc(-c2nc(Nc3cnn(C4CC4)c3)ncc2Cl)cc1` [Example 111, (S)-4-(5-Chloro-2-((1-cyclopropyl-1H-pyrazol-4-yl)amino)pyrimidin-4-yl)-N-(1-cyanoethyl)benzamide], the 50% inhibitory concentration (IC50) in data set [1] is 31.4 nM; in data set [2] (setting [8]) it was 2.79 nM; in data set [3], 43.3 nM; in data set [4] (setting [10]) it was 8.64 nM.
As to `CC[C@@H](C#N)NC(=O)c1ccc(-c2nc(Nc3cnn(C4CCN(C)CC4)c3)ncc2C)cc1` [Example 184, (S)—N-(1-Cyanopropyl)-4-(5-methyl-2-((1-(1-methylpiperidin-4-yl)-1H-pyrazol-4-yl)amino)pyrimidin-4-yl)benzamide], the microsomal CLint at 1 μM in data set [5] was 11.4 µL/min/mg; in data set [7], 78.5 µL/min/mg. The IC50 is 0.37 nM in data set [2] (setting [8]), 1.34 nM in data set [3], 0.61 nM in data set [4] (setting [10]) and > 50 µM in data set [6].
As to `Cc1cnc(Nc2cnn(CC#N)c2)nc1-c1ccc(C(=O)NCC#N)cc1` [Example 4, N-(Cyanomethyl)-4-(2-((1-(cyanomethyl)-1H-pyrazol-4-yl)amino)-5-methylpyrimidin-4-yl)benzamide], the concentration for half-maximal inhibition (IC50) in data set [1] came out at 109 nM; in data set [2] (setting [8]), 43 nM; in data set [2] (setting [9]) it was 2.04 nM; in data set [3], 62.9 nM; in data set [4] (setting [10]) it was 8.75 nM; in data set [4] (setting [11]), 1.73 nM. In addition, the IC50 in data set [6] was > 50 µM. The results for the microsomal CLint at 1 μM in data set [5] and in data set [7] were 1.22 µL/min/mg and 16.4 µL/min/mg, respectively.
